Molecules are shown by their SMILES.

In the test the target is T1, human V1a receptor (Homo sapiens, UniProt P37288).
T1 construct: expressed in transfected cells; host or cells: HEK293 cells, transiently transfected; cell membranes
T1 sequence (P37288 whole entry): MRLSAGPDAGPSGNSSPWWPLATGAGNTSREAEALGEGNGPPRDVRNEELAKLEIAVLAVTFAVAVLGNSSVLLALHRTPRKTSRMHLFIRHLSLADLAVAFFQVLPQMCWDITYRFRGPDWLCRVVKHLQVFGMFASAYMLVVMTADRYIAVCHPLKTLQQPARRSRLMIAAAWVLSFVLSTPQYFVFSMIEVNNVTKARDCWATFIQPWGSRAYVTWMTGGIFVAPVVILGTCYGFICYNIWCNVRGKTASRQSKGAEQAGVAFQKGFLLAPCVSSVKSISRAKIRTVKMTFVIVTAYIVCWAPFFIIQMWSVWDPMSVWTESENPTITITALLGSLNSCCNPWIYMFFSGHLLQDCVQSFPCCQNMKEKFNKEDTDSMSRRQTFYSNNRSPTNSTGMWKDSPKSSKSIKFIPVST
As to the kind of experiment: human V1a receptor binding (3H-Vasopressin SPA, HEK293 membranes). To be noted: displacement of 4 nM 3H-Vasopressin, membranes of HEK293 cells transiently transfected with human V1a receptor; Ki from IC50 by Cheng-Prussoff. The essentials:
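Transiently transfected HEK293 membranes on yttrium silicate SPA beads in Tris binding buffer (120 mM NaCl, 5 mM KCl, 2 mM CaCl2, 10 mM MgCl2). 3H-vasopressin added as 4 nM working solution; excess cold vasopressin set non-specific binding. 1 h at room temperature, then counting; Ki from fitted IC50 via Cheng-Prusoff.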
In turn, `Cc1ncc(Cn2cc(C(=O)N3CCC4(CC3)OC(=O)c3cc(F)ccc34)c3ccc(Cl)cc32)c(N)n1` [Example 163, 1′-({1-[(4-Amino-2-methylpyrimidin-5-yl)methyl]-6-chloro-1H-indol-3-yl}carbonyl)-5-fluoro-3H-spiro[2-benzofuran-1,4′-piperidin]-3-one] registered an inhibition constant (Ki) of 15.3 nM. The compound `O=C1OC2(CCN(C(=O)c3cn(Cc4ccc(Cl)nc4)c4cc(Cl)ccc34)CC2)c2ccc(F)cc21` [Example 164, 1′-({6-Chloro-1-[(6-chloropyridin-3-yl)methyl]-1H-indol-3-yl}carbonyl)-5-fluoro-3H-spiro[2-benzofuran-1,4′-piperidin]-3-one] showed a Ki of 2.9 nM. As for `Cc1cc(Cn2cc(C(=O)N3CCC4(CC3)OC(=O)c3cc(F)ccc34)c3ccc(Cl)cc32)c(Cl)nn1` [Example 165, 1′-({6-Chloro-1-[(3-chloro-6-methylpyridazin-4-yl)methyl]-1H-indol-3-yl}carbonyl)-5-fluoro-3H-spiro[2-benzofuran-1,4′-piperidin]-3-one], affinity was put at a Ki of 4.3 nM.

For the compound `O=C1OC2(CCN(C(=O)c3cn(Cc4ccncc4)c4cc(Cl)ccc34)CC2)c2ccc(F)cc21` [Example 166, 1′-{[6-Chloro-1-(pyridin-4-ylmethyl)-1H-indol-3-yl]carbonyl}-5-fluoro-3H-spiro[2-benzofuran-1,4′-piperidin]-3-one], the Ki amounted to 2.4 nM.

The compound `O=C1OC2(CCN(C(=O)c3cn(CCc4ccncc4)c4cc(Cl)ccc34)CC2)c2ccc(F)cc21` [Example 167, 1′-{[6-Chloro-1-(2-pyridin-4-ylethyl)-1H-indol-3-yl]carbonyl}-5-fluoro-3H-spiro[2-benzofuran-1,4′-piperidin]-3-one] registered a Ki of 3 nM. Compound `O=C1OC2(CCN(C(=O)c3cn(Cc4ccncc4)c4cc(Cl)ccc34)CC2)c2ccccc21` [Example 168, 1′-{[6-Chloro-1-(pyridin-4-ylmethyl)-1H-indol-3-yl]carbonyl}-3H-spiro[2-benzofuran-1,4′-piperidin]-3-one] gave a Ki of 2.4 nM. The figure for `O=C(Cn1cc(C(=O)N2CCC3(CC2)OC(=O)c2cc(F)ccc23)c2ccc(Cl)cc21)c1ccccn1` [Example 169, 1′-{[6-Chloro-1-(2-oxo-2-pyridin-2-ylethyl)-1H-indol-3-yl]carbonyl}-5-fluoro-3H-spiro[2-benzofuran-1,4′-piperidin]-3-one] is 1.5 nM; for `Cc1oc(-c2ccccc2)nc1C(=O)Cn1cc(C(=O)N2CCC3(CC2)OC(=O)c2cc(F)ccc23)c2ccc(Cl)cc21` [Example 170, 1′-({6-Chloro-1-[2-(5-methyl-2-phenyl-1,3-oxazol-4-yl)-2-oxoethyl]-1H-indol-3-yl}carbonyl)-5-fluoro-3H-spiro[2-benzofuran-1,4′-piperidin]-3-one] it is 2.2 nM; for `O=C1OC2(CCN(C(=O)c3cn(Cc4ccccn4)c4cc(Cl)ccc34)CC2)c2ccc(F)cc21` [Example 171, 1′-{[6-Chloro-1-(pyridin-2-ylmethyl)-1H-indol-3-yl]carbonyl}-5-fluoro-3H-spiro[2-benzofuran-1,4′-piperidin]-3-one] it is 2.7 nM. `O=C1OC2(CCN(C(=O)c3cn(Cc4cccnc4)c4cc(Cl)ccc34)CC2)c2ccccc21` [Example 172, 1′-{[6-Chloro-1-(pyridin-3-ylmethyl)-1H-indol-3-yl]carbonyl}-3H-spiro[2-benzofuran-1,4′-piperidin]-3-one] gave a Ki of 3 nM. The compound `O=C1OC2(CCN(C(=O)c3cn(Cc4cnccn4)c4cc(Cl)ccc34)CC2)c2ccc(F)cc21` [Example 173, 1′-{[6-Chloro-1-(pyrazin-2-ylmethyl)-1H-indol-3-yl]carbonyl}-5-fluoro-3H-spiro[2-benzofuran-1,4′-piperidin]-3-one] displayed a Ki of 2.3 nM. On to `O=C1OC2(CCN(C(=O)c3cn(Cc4cncnc4)c4cc(Cl)ccc34)CC2)c2ccc(F)cc21` [Example 174, 1′-{[6-Chloro-1-(pyrimidin-5-ylmethyl)-1H-indol-3-yl]carbonyl}-5-fluoro-3H-spiro[2-benzofuran-1,4′-piperidin]-3-one], for which the Ki amounted to 2.6 nM.
